Experimental findings from patent US20110218191A1, “USE OF MELOXICAM FOR THE LONG TERM-TREATMENT OF KIDNEY DISORDERS IN CATS” (BOEHRINGER INGELHEIM VETMEDICA GMBH, priority 2010, published 2011) are described below.

Series [1] deals with aged cats with chronic kidney disease (CKD), IRIS stage 1-3. The series can be described thus: Retrospective case-controlled study: long-term meloxicam in aged cats with CKD (Group A) vs age and IRIS matched untreated controls (Group C). The class given is in vivo, cat.
Method: The diagnosis of osteoarthritis or spondylosis deformans had been made based upon any two of the following: owner noted mobility changes, physical examination findings or radiographic changes. […] In addition, cats were only included if serum biochemistry, urine analysis and body weight had been regularly monitored. […]
In house urine specific gravity was determined with a Reichert Vet360 refractometer. Urine specific gravity was regularly compared to that measured by the same reference laboratory. […]
Series [2] concerns aged cats without chronic kidney disease (no-CKD). The series is described as follows: Retrospective case-controlled study: long-term meloxicam in aged cats without CKD (Group B) vs age matched untreated controls (Group D). The class given is in vivo, cat. An excerpt:
The medical records of a feline-only practice were searched for cats with OA being treated with meloxicam during a 4 year period. A diagnosis of OA was based upon any two of the following: owner noted mobility changes and/or physical examination findings or radiographic changes. Cats included were older than 7 years and treated with meloxicam for a duration of more than 6 months. Biochemistry, urinalysis and body weight were regularly monitored. The progression of renal disease in the aged non-renal and renal group treated was compared to age matched and IRIS matched untreated controls from the same clinic. IRIS staging of CKD follows specific guidelines on the diagnosis and assessment of progression of renal disease in small animals as described below. Animals are being divided into […] categories according to the stage of their disease, see Table 1 (iris-kidney.com).
The database of a feline-only practice in suburban Melbourne was searched for cats which had been treated for chronic musculoskeletal diseases with meloxicam (Metacam® oral suspension, Boehringer Ingelheim) during a 4 year period. The diagnosis of osteoarthritis or spondylosis deformans had been made based upon any two of the following: owner noted mobility changes, physical examination findings or radiographic changes. The inclusion criteria included cats greater than 7 years old which had been treated continuously with meloxicam for a duration of more than 6 months and which had complete medical records available for review. In addition, cats were only included if serum biochemistry, urine analysis and body weight had been regularly monitored.
Young cats were excluded, as were cats with no pre-treatment renal parameter measurements. In addition cats were also excluded if the owner could not be contacted to check that the cats were still receiving daily treatment with meloxicam.
Age, breed, sex, concomitant diseases and medications as well as date treatment commenced, treatment duration and daily dose of meloxicam were recorded.
The majority of serum biochemistry determination was via external reference laboratory (Normal Range: Creatinine 0.08-0.20 mmol/L) and the remainder with an in-house IDEXX biochemistry and electrolyte machine (Normal Range: Creatinine 71-212 umol/L). In house urine specific gravity was determined with a Reichert Vet360 refractometer. Urine specific gravity was regularly compared to that measured by the same reference laboratory. Urine sediment examination and dipstick determination was carried out in-house with necessary urine cultures and urine protein. Urine creatinine determination was carried out at the same reference laboratory. […]
The median age of the renal and non-renal treated cats, median treatment duration and median maintenance dose was calculated. […]

Regarding `Cc1cnc(NC(=O)C2=C(O)c3ccccc3S(=O)(=O)N2C)s1` [meloxicam], the “differences from baseline in body weight” value is “no statistically significant differences” in series [1] (CKD-meloxicam group (A) vs age and IRIS matched untreated CKD group (C), time adjusted AUC, Wilcoxon rank-sum-test); “no statistically significant differences” in series [2] (no-CKD meloxicam group (B) vs untreated no-CKD group (D), time adjusted AUC, Wilcoxon rank-sum-test). Also, the “median maintenance dose after dose titration to the lowest effective dose” value stood at 0.02 mg/kg daily in series [1] (renal treated group (A), oral suspension) and 0.02 mg/kg daily in series [2] (non-renal treated group (B), oral suspension). The progression of creatinine result in series [2] (meloxicam treated no-CKD group (B) vs untreated no-CKD group) is “no significant difference”. Also, the “progression of renal parameters” value in series [2] (non-renal group treated with meloxicam (B) vs non-renal group not treated, median maintenance dose 0.02 mg/kg daily, median treatment duration 327 days) is given as “no differences”.
